≈ marks a conversion by molar mass, not a printed value.

Assay [1] concerns Staphylococcus epidermidis. Description: Antibacterial activity against Staphylococcus epidermidis incubated for 24 hrs by microdilution method. The format is functional. On the technique in general: Dilution methods test growth across graded concentrations, often in twofold steps.
Assay [2] concerns Bacillus subtilis. Description: Antibacterial activity against Bacillus subtilis MTCC 441 incubated for 24 hrs by microdilution method. The format is functional.
Assay [3] has as its system Pseudomonas aeruginosa. Description: Antibacterial activity against Pseudomonas aeruginosa MTCC 741 incubated for 24 hrs by microdilution method. In kind it is functional.
Assay [4] relates to Escherichia coli. Description: Antibacterial activity against Escherichia coli MTCC 443 incubated for 24 hrs by microdilution method. The format is functional.
In assay [5] the test system is Staphylococcus aureus. Description: Antibacterial activity against Staphylococcus aureus MTCC 96 incubated for 24 hrs by microdilution method. The format is functional.
Assay [6] has as its system Klebsiella pneumoniae. Briefly: Antibacterial activity against Klebsiella pneumoniae MTCC 618 incubated for 24 hrs by microdilution method. The format is functional.
The next assay deals with Aspergillus fumigatus. Briefly: Antifungal activity against Aspergillus fumigatus RCMB-02568 assessed as diameter of inhibition zone at 5 mg/ml by diffusion technique. In kind it is functional. The note with it: read-out: DIZ.
Assay [7] deals with Syncephalastrum racemosum. Briefly: Antifungal activity against Syncephalastrum racemosum RCMB-05922 assessed as diameter of inhibition zone at 5 mg/ml by diffusion technique. In kind it is functional. The note with it: read-out: DIZ.
A further assay concerns Geotrichum candidum. Description: Antifungal activity against Geotrichum candidum RCMB-05097 assessed as diameter of inhibition zone at 5 mg/ml by diffusion technique. In kind it is functional. The note with it: read-out: DIZ.
The test system of a further assay is Bacillus cereus. Description: Antibacterial activity against Bacillus cereus RCMB-010067 assessed as diameter of inhibition zone at 5 mg/ml by diffusion technique. In kind it is functional. The note with it: read-out: DIZ.
The test system of assay [8] is Escherichia coli. Briefly: Antibacterial activity against Escherichia coli RCMB-010052 assessed as diameter of inhibition zone at 5 mg/ml by diffusion technique. The format is functional. The note with it: read-out: DIZ.
Assay [9] deals with Staphylococcus aureus. Description: Antibacterial activity against Staphylococcus aureus RCMB-010010 assessed as diameter of inhibition zone at 5 mg/ml by diffusion technique. In kind it is functional. To be noted: read-out: DIZ.
For assay [10], the system named is Pseudomonas aeruginosa. Description: Antibacterial activity against Pseudomonas aeruginosa RCMB-010043 assessed as diameter of inhibition zone at 5 mg/ml by diffusion technique. The note with it: read-out: DIZ. The format is functional.
Assay [11] has as its system Candida albicans. Description: Antifungal activity against Candida albicans RCMB-05036 assessed as diameter of inhibition zone at 5 mg/ml by diffusion technique. In kind it is functional. The note with it: read-out: DIZ.
Assay [12] relates to Escherichia coli. Briefly: Antibacterial activity against Escherichia coli ATCC 25922 assessed as inhibition zone. In kind it is functional.
Assay [13] relates to Proteus vulgaris. Briefly: Antibacterial activity against Proteus vulgaris ATCC 4636 assessed as inhibition zone. The format is functional.
Another assay deals with Bacillus spizizenii. Description: Antibacterial activity against Bacillus subtilis ATCC 6633 assessed as inhibition zone. The format is functional.
The subject of assay [14] is Staphylococcus aureus. Description: Antibacterial activity against Staphylococcus aureus ATCC 25923 assessed as inhibition zone. The format is functional.
Assay [15] deals with Pseudomonas aeruginosa. Description: Antibacterial activity against Pseudomonas aeruginosa ATCC 27853 assessed as inhibition zone. The format is functional.
The test system of assay [16] is Proteus vulgaris. Description: Antibacterial activity against Proteus vulgaris ATCC 29905. The format is functional.
For assay [17], the system named is Stenotrophomonas maltophilia. Briefly: Antibacterial activity against Stenotrophomonas maltophilia ATCC 13636. In kind it is functional.
For assay [18], the system named is Escherichia coli. Description: Antibacterial activity against Escherichia coli 14-11. The format is functional.
Assay [19] concerns Klebsiella pneumoniae. Briefly: Antibacterial activity against Klebsiella pneumoniae ATCC 700603. The format is functional.
The test system of assay [20] is Enterococcus faecalis. Description: Antibacterial activity against Enterococcus faecalis ATCC 29212 after overnight incubation by CLSI M7-A9 based method. The format is functional.
The test system of assay [21] is Staphylococcus aureus. Briefly: Antibacterial activity against methicillin-resistant Staphylococcus aureus ATCC 33591. The format is functional.
Assay [22] concerns Pseudomonas aeruginosa. Briefly: Antibacterial activity against Pseudomonas aeruginosa ATCC 27853. In kind it is functional.
The subject of another assay is Klebsiella aerogenes. Description: Antibacterial activity against Enterobacter aerogenes ATCC 13048. In kind it is functional.
The test system of a further assay is Serratia marcescens. Description: Antibacterial activity against Serratia marcescens ATCC 21074. In kind it is functional.
The test system of assay [23] is Staphylococcus aureus. Briefly: Antibacterial activity against methicillin-sensitive Staphylococcus aureus ATCC 29213. In kind it is functional.
Assay [24] deals with Acinetobacter calcoaceticus. Description: Antibacterial activity against Acinetobacter calcoaceticus ATCC 19606. In kind it is functional.
The next assay concerns Proteus mirabilis. Briefly: Antibacterial activity against Proteus mirabilis 13-1. In kind it is functional.
Assay [25] deals with Staphylococcus epidermidis. Description: Antibacterial activity against methicillin-resistant Staphylococcus epidermidis 13-3. In kind it is functional.
In the next assay the test system is Morganella morganii. Briefly: Antibacterial activity against Morganella morganii ATCC 25830. In kind it is functional.
The subject of assay [26] is Enterococcus faecalis. Description: Antibacterial activity against Enterococcus faecalis ATCC 51299. The format is functional.
In assay [27] the test system is Staphylococcus epidermidis. Briefly: Antibacterial activity against methicillin-sensitive Staphylococcus epidermidis ATCC 12228. In kind it is functional.
Assay [28] relates to Enterococcus faecium. Description: Antibacterial activity against Enterococcus faecium 13-7. The format is functional.
Assay [29] has as its system Klebsiella pneumoniae. Briefly: Antibacterial activity against Klebsiella pneumoniae 7. The format is functional.
The subject of a further assay is Citrobacter freundii. Description: Antibacterial activity against Citrobacter freundii ATCC 43864. The format is functional.
The subject of assay [30] is Escherichia coli. Description: Antibacterial activity against Escherichia coli ATCC 25922 after overnight incubation by CLSI M7-A9 based method. In kind it is functional.
Another assay concerns Providencia rettgeri. Briefly: Antibacterial activity against Providencia rettgeri ATCC 31052. In kind it is functional.
The subject of a further assay is Enterobacter cloacae. Description: Antibacterial activity against Enterobacter cloacae ATCC 43560. In kind it is functional.
Assay [31] relates to Enterococcus faecium. Briefly: Antibacterial activity against Enterococcus faecium ATCC 700221. The format is functional.
In assay [32] the test system is Candida albicans. Briefly: Antifungal activity against Candida albicans MTCC 227 incubated for 2 days by microdilution method. In kind it is functional. To be noted: MTCC 227, 48 h, time 2 day.
Assay [33] relates to Bacillus subtilis. Description: Antibacterial activity against Bacillus subtilis MTCC 441 incubated for 24 hrs by two-fold serial dilution method. The format is functional.
The next assay has as its system Aspergillus brasiliensis. Briefly: Antifungal activity against Aspergillus brasiliensis MTCC 1344 incubated for 7 days by microdilution method. In kind it is functional. The note with it: MTCC 1344, 168 h, time 7 day.
Assay [34] concerns Staphylococcus aureus. Briefly: Antibacterial activity against Staphylococcus aureus MTCC 7443 incubated for 24 hrs by two-fold serial dilution method. In kind it is functional.
The test system of assay [35] is Pseudomonas aeruginosa. Briefly: Antibacterial activity against Pseudomonas aeruginosa MTCC 424 incubated for 24 hrs by two-fold serial dilution method. In kind it is functional.
For a further assay, the system named is HepG2. Briefly: Anticancer activity against human HepG2 cells by MTT assay. The format is functional, cell-based. Background: Formazan colour is commonly taken as a measure of viable cells.

As for `O=C(c1cn(Cc2cn(-c3ccc(C(F)(F)F)cc3)nn2)c2cc(N3CCOCC3)c(F)cc2c1=O)N1CCOCC1`, the minimal inhibitory concentration (MIC) (in [1]; against Bacillus subtilis [2]; in the assay on Pseudomonas aeruginosa [3]; in the assay on Escherichia coli [4]; in the assay with Staphylococcus aureus [5]; against Klebsiella pneumoniae [6]) was 18.8 µg/mL (≈ 32 µM) each time.

`Cc1ccc(-n2nc(N)c(C(=O)NCCNC(=O)c3nn(-c4ccc(C)cc4)nc3N)n2)cc1`: the zone of inhibition at 5000 µg/mL (in the assay on Aspergillus fumigatus; in assay [7]; in the assay on Geotrichum candidum; in the assay with Bacillus cereus; with Escherichia coli [8]; in the assay on Staphylococcus aureus [9]) was 8.3 mm throughout. Further, the zone of inhibition at 5000 µg/mL in the assay on Pseudomonas aeruginosa [10] and in the assay with Candida albicans [11] was 8.3 mm throughout.

With `CC(O)C(=O)O.CCOc1ccc2nc3cc(N)ccc3c(N)c2c1`, the “inhibition zone (IZ)” value in the assay with Escherichia coli [12], in the assay with Proteus vulgaris [13], in the assay on Bacillus spizizenii, with Staphylococcus aureus [14] and in the assay with Pseudomonas aeruginosa [15] was 12 mm in each case.

Turning to `COc1c(N2CCN(CCn3ccnn3)CC2)c(F)cc2c(=O)c(C(=O)O)cn(C3CC3)c12`, the MIC (with Proteus vulgaris [16]; in [17]; against Escherichia coli [18]; with Klebsiella pneumoniae [19]; in the assay with Enterococcus faecalis [20]; against Staphylococcus aureus [21]) was at least 0.5 µg/mL each time. Moreover, the MIC (in the assay with Pseudomonas aeruginosa [22]; with Klebsiella aerogenes; in the assay with Serratia marcescens; against Staphylococcus aureus [23]; in assay [24]; against Proteus mirabilis) was at least 0.5 µg/mL in each case. For the same compound, the MIC (in assay [25]; in the assay with Morganella morganii; against Enterococcus faecalis [26]; in [27]; in the assay with Enterococcus faecium [28]; against Klebsiella pneumoniae [29]) was at least 0.5 µg/mL each time. Besides, the MIC with Citrobacter freundii, in the assay on Escherichia coli [30], in the assay on Providencia rettgeri, against Enterobacter cloacae and in the assay on Enterococcus faecium [31] was at least 0.5 µg/mL in each case.

Take `C[C@H]1COc2c(N3CCN(C)CC3)c(F)cc3c(=O)c(C(=O)O)cn1c23.C[C@H]1COc2c(N3CCN(C)CC3)c(F)cc3c(=O)c(C(=O)O)cn1c23.O` [LEVOFLOXACIN]: the MIC (in the assay with Proteus vulgaris [16]; in assay [17]; with Escherichia coli [18]; with Klebsiella pneumoniae [19]; with Enterococcus faecalis [20]; against Staphylococcus aureus [21]) was at most 0.03 µg/mL in each case. Further, the MIC (in the assay on Pseudomonas aeruginosa [22]; against Klebsiella aerogenes; against Serratia marcescens; in the assay with Staphylococcus aureus [23]; in assay [24]; with Proteus mirabilis) was at most 0.03 µg/mL throughout. The MIC (in assay [25]; against Morganella morganii; in the assay with Enterococcus faecalis [26]; in assay [27]; against Enterococcus faecium [28]; against Klebsiella pneumoniae [29]) was at most 0.03 µg/mL each time. Moreover, the minimum inhibitory concentration (MIC) with Citrobacter freundii, against Escherichia coli [30], in the assay with Providencia rettgeri, in the assay on Enterobacter cloacae and in the assay with Enterococcus faecium [31] was at most 0.03 µg/mL in each case.

On to `O=C(Cn1cc(COc2ccc(OCc3cn(CC(=O)Nc4ccccc4)nn3)cc2)nn1)Nc1ccccc1`, for which the MIC with Candida albicans [32], with Bacillus subtilis [33], against Aspergillus brasiliensis, with Staphylococcus aureus [34] and with Pseudomonas aeruginosa [35] was 0.0928 µM (≈ 0.05 µg/mL) each time.

As for `C[C@@H]1[C@H](O)[C@@H](C)/C=C/C=C/C=C/C=C/C=C/C=C/C=C/[C@H](O[C@@H]2O[C@H](C)[C@@H](O)[C@H](N)[C@@H]2O)C[C@@H]2O[C@](O)(C[C@@H](O)C[C@@H](O)[C@H](O)CC[C@@H](O)C[C@@H](O)CC(=O)O[C@H]1C)C[C@H](O)[C@H]2C(=O)O` [AMPHOTERICIN B], the zone of inhibition at 5000 µg/mL (with Aspergillus fumigatus; in [7]; with Geotrichum candidum; in the assay with Candida albicans [11]) was 19.7 mm throughout.

On to `COc1ccc(-n2cc(Cn3cc(C(=O)N4CCCCC4)c(=O)c4cc(F)c(N5CCCCC5)cc43)nn2)cc1`, for which the MIC (in [1]; with Bacillus subtilis [2]; in the assay with Pseudomonas aeruginosa [3]; with Escherichia coli [4]; in the assay with Staphylococcus aureus [5]; in the assay with Klebsiella pneumoniae [6]) was 18.8 µg/mL (≈ 34.4 µM) in each case.

Turning to `CC[C@]1(O)C[C@@H]2CN(CCc3c([nH]c4ccccc34)[C@@](C(=O)OC)(c3cc4c(cc3OC)N(C)[C@H]3[C@@](O)(C(=O)OC)[C@H](OC(C)=O)[C@]5(CC)C=CCN6CC[C@]43[C@@H]65)C2)C1` [VINBLASTINE], in the assay on HepG2, the IC50 (commonly the point on the concentration scale where inhibition reaches its midpoint) worked out at 4.6 µg/mL (≈ 5.67 µM).

The values are drawn from ChEMBL document CHEMBL4699440, “Comprehensive review on the anti-bacterial activity of 1,2,3-triazole hybrids” (Eur J Med Chem, 2019).
